Common to all, as to assay type: cell-based
Assay [1] has as its target T1, protein kinases (human kinome) (Homo sapiens, UniProt P42680).
T1 sequence (P42680 1-631): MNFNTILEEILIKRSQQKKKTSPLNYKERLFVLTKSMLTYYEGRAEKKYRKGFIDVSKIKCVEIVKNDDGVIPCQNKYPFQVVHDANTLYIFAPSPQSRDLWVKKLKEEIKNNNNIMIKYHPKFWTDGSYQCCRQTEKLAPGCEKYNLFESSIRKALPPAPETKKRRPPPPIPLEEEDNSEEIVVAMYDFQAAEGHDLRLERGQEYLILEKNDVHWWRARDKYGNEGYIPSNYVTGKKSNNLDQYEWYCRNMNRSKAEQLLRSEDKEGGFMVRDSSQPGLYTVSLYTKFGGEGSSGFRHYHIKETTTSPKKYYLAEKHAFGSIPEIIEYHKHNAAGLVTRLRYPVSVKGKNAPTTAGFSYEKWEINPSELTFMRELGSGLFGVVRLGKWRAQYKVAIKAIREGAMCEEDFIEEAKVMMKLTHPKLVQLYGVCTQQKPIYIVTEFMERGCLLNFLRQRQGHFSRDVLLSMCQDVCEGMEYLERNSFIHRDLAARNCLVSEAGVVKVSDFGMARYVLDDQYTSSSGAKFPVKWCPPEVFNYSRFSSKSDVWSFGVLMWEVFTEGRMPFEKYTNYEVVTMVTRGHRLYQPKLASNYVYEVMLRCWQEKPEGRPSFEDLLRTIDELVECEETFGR
The note with it: TEC (P42680).

Assay [2] addresses T2, protein kinases (human kinome) (Homo sapiens, UniProt O00444).
T2 sequence (O00444 1-970): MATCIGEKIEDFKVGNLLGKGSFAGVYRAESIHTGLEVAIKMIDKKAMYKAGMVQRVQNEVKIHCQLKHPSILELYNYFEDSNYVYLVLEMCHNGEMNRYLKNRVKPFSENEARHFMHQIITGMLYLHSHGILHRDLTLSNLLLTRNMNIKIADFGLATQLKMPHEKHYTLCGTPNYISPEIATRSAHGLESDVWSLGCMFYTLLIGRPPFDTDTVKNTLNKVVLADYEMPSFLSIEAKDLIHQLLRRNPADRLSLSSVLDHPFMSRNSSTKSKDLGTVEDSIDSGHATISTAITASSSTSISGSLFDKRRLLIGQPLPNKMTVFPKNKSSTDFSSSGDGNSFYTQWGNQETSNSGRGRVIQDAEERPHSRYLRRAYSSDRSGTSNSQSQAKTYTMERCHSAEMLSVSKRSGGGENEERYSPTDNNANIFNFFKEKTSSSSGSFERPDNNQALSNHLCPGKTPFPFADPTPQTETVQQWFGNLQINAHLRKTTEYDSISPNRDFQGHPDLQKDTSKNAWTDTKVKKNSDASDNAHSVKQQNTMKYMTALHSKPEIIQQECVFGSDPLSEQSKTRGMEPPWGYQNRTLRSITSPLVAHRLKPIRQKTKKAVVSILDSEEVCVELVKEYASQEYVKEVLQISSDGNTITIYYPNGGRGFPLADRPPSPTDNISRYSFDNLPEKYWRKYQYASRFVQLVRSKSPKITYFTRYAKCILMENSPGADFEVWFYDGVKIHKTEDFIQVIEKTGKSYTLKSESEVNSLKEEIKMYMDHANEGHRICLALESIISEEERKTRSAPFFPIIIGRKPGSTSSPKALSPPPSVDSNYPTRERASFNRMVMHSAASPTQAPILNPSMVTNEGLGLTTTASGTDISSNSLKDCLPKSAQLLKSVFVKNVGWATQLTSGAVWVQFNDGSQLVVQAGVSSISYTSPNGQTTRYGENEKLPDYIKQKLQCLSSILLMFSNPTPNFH

Assay [3] addresses protein kinases (human kinome) (Homo sapiens, UniProt P23443). To be noted: for logFC: RPS6KB1 (P23443-1).
For assay [4], the target named is T3, protein kinases (human kinome) (Homo sapiens, UniProt Q08881).
T3 sequence (Q08881 1-620): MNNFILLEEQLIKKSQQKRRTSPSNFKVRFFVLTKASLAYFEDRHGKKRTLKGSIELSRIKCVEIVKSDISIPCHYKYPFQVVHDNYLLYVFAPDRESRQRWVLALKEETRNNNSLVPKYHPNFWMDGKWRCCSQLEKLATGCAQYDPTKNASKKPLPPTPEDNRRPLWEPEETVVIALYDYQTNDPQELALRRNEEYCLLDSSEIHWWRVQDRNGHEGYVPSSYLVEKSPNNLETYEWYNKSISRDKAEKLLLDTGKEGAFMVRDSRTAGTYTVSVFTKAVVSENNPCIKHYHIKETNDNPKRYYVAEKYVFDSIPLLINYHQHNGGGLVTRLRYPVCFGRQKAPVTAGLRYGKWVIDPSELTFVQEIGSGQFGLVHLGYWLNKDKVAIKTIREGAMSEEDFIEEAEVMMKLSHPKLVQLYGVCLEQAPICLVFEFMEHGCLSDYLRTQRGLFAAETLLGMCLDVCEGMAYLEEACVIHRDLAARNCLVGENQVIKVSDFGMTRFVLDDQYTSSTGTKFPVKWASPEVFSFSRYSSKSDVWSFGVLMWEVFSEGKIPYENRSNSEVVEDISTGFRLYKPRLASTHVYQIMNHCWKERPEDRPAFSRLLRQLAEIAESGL

Setting [5] is: Accession O00444, experiment wp131, direction down.
Where [6] appears, read: Accession O00444, experiment wp137, direction down.
The mark [7] stands for this setting: PLK4 (O00444), experiment wp137.
The mark [8] stands for this setting: experiment wp137, direction down.
The mark [9] stands for this setting: experiment wp016, direction of change down.
Setting [10] is: experiment wp131, direction of change down.

Where two headings read alike, the source gives them in different places.

protein kinases (human kinome) (Homo sapiens, UniProt P23443), sequence (P23443 whole entry): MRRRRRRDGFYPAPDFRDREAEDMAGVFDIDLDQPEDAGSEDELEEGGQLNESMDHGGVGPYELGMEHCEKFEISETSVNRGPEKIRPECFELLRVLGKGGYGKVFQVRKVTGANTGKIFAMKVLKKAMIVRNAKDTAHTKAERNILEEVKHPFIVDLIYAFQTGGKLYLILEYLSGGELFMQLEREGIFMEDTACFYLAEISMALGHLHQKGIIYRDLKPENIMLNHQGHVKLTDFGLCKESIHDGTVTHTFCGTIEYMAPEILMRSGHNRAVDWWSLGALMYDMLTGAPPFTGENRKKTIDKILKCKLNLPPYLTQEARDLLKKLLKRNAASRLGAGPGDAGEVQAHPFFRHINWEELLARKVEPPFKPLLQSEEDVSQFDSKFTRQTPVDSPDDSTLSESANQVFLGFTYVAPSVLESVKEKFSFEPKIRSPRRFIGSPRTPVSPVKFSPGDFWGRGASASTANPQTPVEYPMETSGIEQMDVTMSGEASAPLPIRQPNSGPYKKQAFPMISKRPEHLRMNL

With `Cc1ccc(NC(=O)c2cccc(C(F)(F)F)c2)cc1N1Cc2cnc(Nc3ccc(N4CCN(Cc5cn(CCCCCOc6cccc7c6C(=O)N(C6CCC(=O)NC6=O)C7=O)nn5)CC4)nc3)nc2N(C)C1=O` (stereo not shown) [DB0646, N-(3-(7-((6-(4-((1-(5-((2-(2,6-Dioxopiperidin-3-yl)-1,3-dioxoisoindolin-4-yl)oxy)pentyl)-1H-1,2,3-triazol-4-yl)methyl)piperazin-1-v)pyridin-3-yl)amino)-1-methyl-2-oxo-1,4-dihydropyrimido[4,5-d]pyrimidin-3(2H)-yl)-4-methylphenyl)-3-(trifluoromethyl)benzamide], the logFC in assay [1] (experiment wp107) is on record as −0.8282; in assay [1] (experiment wp107, direction down) it was −0.8282.

As for `CS(=O)(=O)Nc1cccc(-c2csc3cnc(Nc4ccc(N5CCN(CCCCCOc6cccc7c6C(=O)N(C6CCC(=O)NC6=O)C7=O)CC5)cc4)nc23)c1` (stereo not shown) [DB0614, N-(3-(2-((4-(4-(5-((2-(2,6-Dioxopiperidin-3-yl)-1,3-dioxoisoindolin-4-yl)oxy)pentyl)piperazin-1-yl)phenyl)amino)thieno[3,2-d]pyrimidin-7-yl)phenyl)methanesulfonamide], the “logFC PLK4” value in assay [2] (Accession O00444, experiment wp117, direction down) was −0.5414. For the same molecule, the “logFC PLK4 (O00444)” value in assay [2] (experiment wp117) is −0.5414.

Regarding `Cc1cnc(Nc2ccc(N3CCN(CCCCCCC(=O)N[C@H](C(=O)N4C[C@H](O)C[C@H]4C(=O)N[C@@H](C)c4ccc(-c5scnc5C)cc4)C(C)(C)C)CC3)cc2)nc1Nc1cccc(S(=O)(=O)NC(C)(C)C)c1` [JWG.123], the “logFC of RPS6KB1 (P23443-1)” value in assay [3] (Experiment wp195) was −0.3426. In addition, the logFC in assay [3] (experiment wp195) is recorded as −0.3426.

As for `CC(C)S(=O)(=O)c1ccccc1Nc1nc(Nc2ccc(N3CCN(CCOCCOCCNC(=O)CNc4cccc5c4C(=O)N(C4CCC(=O)NC4=O)C5=O)CC3)cc2)ncc1Cl` (stereo not shown) [TL12.186], the figures for the “logFC PLK4” value in assay [2] (setting [5]), in assay [2] (setting [6]) and in assay [2] (setting [7]) were −1.559, −1.159 and −1.159, respectively. For the same molecule, in assay [2] (experiment wp131), the “logFC PLK4 (O00444)” value is −1.559. Besides, the logFC in assay [1] (experiment wp137) and in assay [1] (setting [8]) was −2.11 throughout. Moreover, the “logFC ITK (Q08881)” value in assay [4] (experiment wp016) is −2.342; in assay [4] (setting [9]) it was −2.342; in assay [4] (experiment wp131), −2.292; in assay [4] (setting [10]) it was −2.292; in assay [4] (experiment wp137), −1.973; in assay [4] (experiment wp137, direction of change down) it was −1.973.

As to `Cc1ncsc1-c1ccc([C@H](C)NC(=O)[C@@H]2C[C@@H](O)CN2C(=O)[C@@H](NC(=O)CCCCCN2CCc3cc(Nc4ncc(C5CC5)c(NCCCNC(=O)C5CCC5)n4)ccc3C2)C(C)(C)C)cc1` [BSJ.05.026], the “logFC of RPS6KB1 (P23443-1)” value in assay [3] (Experiment wp195) is reported as −0.5629. For the same molecule, the logFC in assay [3] (experiment wp195) was −0.5629.

As for `Cc1ncsc1-c1ccc([C@H](C)NC(=O)[C@@H]2C[C@@H](O)CN2C(=O)[C@@H](NC(=O)CCCCCN2CCN(c3ccc(Nc4ncc5scc(-c6cccc(NS(C)(=O)=O)c6)c5n4)cc3)CC2)C(C)(C)C)cc1` [RSS0680, (2S,4R)-1-((S)-3,3-Dimethyl-2-(6-(4-(4-((7-(3-(methylsulfonamido)phenyl)thieno[3,2-d]pyrimidin-2-yl)amino)phenyl)piperazin-1-yl)hexanamido)butanoyl)-4-hydroxy-N—((S)-1-(4-(4-methylthiazol-5yl)phenyl)ethyl)pyrrolidine-2-carboxamide], the figures for the “logFC of RPS6KB1 (P23443-1)” value in assay [3] (Experiment wp117) and in assay [3] (experiment wp080) were −0.3893 and −0.4358, respectively. Also, the figures for the logFC in assay [3] (experiment wp080) and in assay [3] (experiment wp117) were −0.4358 and −0.3893, respectively.

Turning to `Cc1ncsc1-c1ccc([C@H](C)NC(=O)[C@@H]2C[C@@H](O)CN2C(=O)[C@@H](NC(=O)CCOCCOCCN2CCN(c3ccc(Nc4ncc(Cl)c(Nc5ccccc5S(=O)(=O)C(C)C)n4)cc3)CC2)C(C)(C)C)cc1` [FMF.06.098.1], in assay [2] (setting [5]), the “logFC PLK4” value was −0.7435. In assay [2] (experiment wp131), the “logFC PLK4 (O00444)” value was −0.7435. Moreover, the “logFC ITK (Q08881)” value in assay [4] (Experiment wp108) is given as −0.3557; in assay [4] (experiment wp108, direction of change down) it was −0.3557; in assay [4] (experiment wp131), −0.3625; in assay [4] (setting [10]) it was −0.3625.

`Cc1cc(Nc2ncc(Br)c(Nc3cccc(F)c3C(N)=O)n2)ccc1S(=O)(=O)NCCOCCOCCOCCOCCNc1cccc2c1C(=O)N(C1CCC(=O)NC1=O)C2=O` (stereo not shown) [TMX.02.174]: the logFC in assay [1] (experiment wp146) is −0.9362; in assay [1] (experiment wp146, direction down) it was −0.9362.

With `CC(C)S(=O)(=O)c1ccccc1Nc1nc(Nc2ccc(N3CCN(CCOCCNC(=O)CNc4ccc5c(c4)C(=O)N(C4CCC(=O)NC4=O)C5=O)CC3)cc2)ncc1Cl` (stereo not shown) [SK.3.93], the “logFC ITK (Q08881)” value in assay [4] (experiment wp016) and in assay [4] (setting [9]) was −2.136 in each case.

`CC(C)S(=O)(=O)c1ccccc1Nc1nc(Nc2ccc(N3CCN(CCOCCOCCC(=O)NCCNc4cccc5c4CN(C4CCC(=O)NC4=O)C5=O)CC3)cc2)ncc1Cl` (stereo not shown) [TL13.97]: the “logFC PLK4” value in assay [2] (setting [6]) and in assay [2] (setting [7]) was −1.049 throughout. In addition, the logFC in assay [1] (experiment wp137) was −1.712; in assay [1] (setting [8]), −1.712; in assay [4] (ITK (Q08881) protein abundance, degrader vs DMSO, direction of change down), −2.28. For the same molecule, in assay [4] (experiment wp137), the “logFC ITK (Q08881)” value is reported as −2.28.

For the origin of these results see patent US20240269139A1, “COMPOUNDS FOR TARGETED PROTEIN DEGRADATION OF KINASES” (DANA-FARBER CANCER INSTITUTE, INC., priority 2020, published 2024).
